Legend:
Conditions in all cases: exposure: 5-72 hpf
[1] = system: Danio rerio embryo (fli1:egfp); assay: heart rate at 72 hpf (beats per minute); higher = faster heart rate
Description: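 fli1:egfp zebrafish embryos exposed 5-72 hpf to chemical (0.05-50 µM, 0.1% DMSO) in 384-well plates; heart rate at 72 hpf quantified from stream acquisitions by semi-automated MetaXpress journal (peak counting); only embryos in concentrations passing survival/body-length criteria analyzed.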

[2] = system: Danio rerio embryo (fli1:egfp); assay: body length at 72 hpf (µm); higher = longer body (less growth inhibition)
Description: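 Transgenic fli1:egfp zebrafish embryos (one per well, 384-well plate) exposed statically from 5 to 72 hpf at 28 °C to chemical (0.05-50 µM, 0.1% DMSO); at 72 hpf anesthetized and imaged on ImageXpress; body length of live, hatched, correctly oriented embryos measured by automated MetaXpress journal. Dead/unhatched/misoriented embryos have no value.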

[3] = system: Danio rerio embryo (fli1:egfp); assay: pericardial area at 72 hpf (image area units (not stated)); higher = larger pericardial area (edema)
Description: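 fli1:egfp zebrafish embryos exposed 5-72 hpf to chemical (0.05-50 µM, 0.1% DMSO); pericardial area at 72 hpf measured by semi-automated MetaXpress journal (increase indicates edema).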

[4] = system: Danio rerio embryo (fli1:egfp); assay: arterial (dorsal aorta) circulation score at 72 hpf (normalized DA-Max (arbitrary units)); higher = more circulation
Description: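 fli1:egfp zebrafish embryos exposed 5-72 hpf to chemical (0.05-50 µM, 0.1% DMSO); arterial circulation at 72 hpf quantified from stream acquisitions of the dorsal aorta by FFT-based analysis (DA-Max, normalized dorsal aorta signal); only concentrations passing survival/body-length criteria analyzed.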

[5] = system: Danio rerio embryo (fli1:egfp); assay: intersegmental vessel area normalized to body length at 72 hpf (ISV area / body length (normalized units)); higher = more vessel area
Description: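 fli1:egfp zebrafish embryos exposed 5-72 hpf to chemical (0.05-50 µM, 0.1% DMSO); intersegmental vessel (ISV) eGFP area quantified by MetaXpress journal at 72 hpf and normalized to body length.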

CC(C)[C@H](C(=O)O[C@H](C#N)c1cccc(Oc2ccccc2)c1)c1ccc(Cl)cc1 [Esfenvalerate]
Conditions	arterial, [4]	body length at 72 hpf, [2]	heart rate at 72 hpf, [1]	intersegmental vessel area normalized, [5]	pericardial area at 72 hpf, [3]
0.05 µM	9.88	3070	184	72.5	14800
0.098 µM	10.8	3140	182	76.8	16600
0.195 µM	10.1	3150	196	76.2	14700
0.39 µM	10.9	3090	198	76.1	15300
0.78 µM	10.1	3140	195	75.7	15800
1.56 µM	10.3	3160	194	63.9	15900
3.125 µM	13.2	2970	188	88.9	14100
6.25 µM	11.9	2830	188	88.2	14600
12.5 µM	–	2760	–	–	–
25 µM	–	2640	–	–	–
50 µM	–	2750	–	–	–

CC1(C)C(C(=O)OC(C#N)c2cccc(Oc3ccccc3)c2)C1(C)C (stereo not given) [Fenpropathrin]
Conditions	arterial, [4]	body length at 72 hpf, [2]	heart rate at 72 hpf, [1]	intersegmental vessel area normalized, [5]	pericardial area at 72 hpf, [3]
0.05 µM	18.5	2970	183	83.1	14600
0.098 µM	13.8	2950	197	80.8	13400
0.195 µM	11.2	2970	191	73.2	14500
0.39 µM	10.7	2940	192	83.8	14400
0.78 µM	12.6	2780	192	85.4	13200
1.56 µM	20.9	2720	188	90.6	13400
3.125 µM	21.2	2710	186	82.2	13600
6.25 µM	–	2640	–	–	–
12.5 µM	–	2590	–	–	–

CCOC(=O)COc1cc(-n2ncc(C(F)(F)F)c(C)c2=O)c(F)cc1Cl [Flufenpyr-ethyl]
Conditions	arterial, [4]	body length at 72 hpf, [2]	heart rate at 72 hpf, [1]	intersegmental vessel area normalized, [5]	pericardial area at 72 hpf, [3]
0.05 µM	8.79	2990	169	84.4	12800
0.098 µM	9.74	3000	178	70.8	13000
0.195 µM	9.58	3040	181	75.2	12300
0.39 µM	8.94	3080	180	77.1	13600
0.78 µM	9.32	3020	186	74.8	13300
1.56 µM	8.81	3020	182	75.8	13600
3.125 µM	6.7	2950	181	82.9	15300
6.25 µM	5.21	2810	166	83.5	25900

Source: the supplement of paper PMC4121296
